{"source": "patent US20250333682A1", "about": "“DYNAMIC HYDROGEL AND PULMONARY FIBROSIS BIONIC CHIP” (Anivance AI Corporation, priority 2024, published 2025)", "system": "HFL-1 cells", "test": "antifibrotic drug efficacy model on lung fibrosis bionic chip, immunofluorescence staining", "type": "cell-based, human", "settings": "TGF-β-induced HFL-1 on dynamic hydrogel with laser dynamic response", "method": "Using the dynamic hydrogel obtained from different crosslinking times as the cell culture substrate for fibrosis models (human fetal lung fibroblasts, HFL-1), the expression of α-SMA protein is used as an indicator of myofibroblast differentiation. After culturing the HFL-1 cells for one day, 10 ng/ml of TGF-β is added to stimulate the cells as a control group for α-SMA expression. After two days of culture, a laser device is used to irradiate the cells for 24 hours at frequencies of 0.2 Hz (On-1.5 s/Off-3.5 s) and 0.3 Hz ([…]), respectively. The cells are then fixed and stained for observation. In FIG. 11, “10 min” and “25 min” indicate the fluorescence images of the dynamic hydrogel 5 obtained by UV irradiation for 10 minutes and 25 minutes, respectively.\nFurthermore, since ECM remodeling in lung fibrosis patients leads to tissue stiffness, and stiff substrates apply mechanical stress to cells, the activity of YAP occurs through nuclear translocation, with YAP cellular localization depending on mechanical stress. Therefore, HFL-1 cells are cultured in dynamic hydrogels of different hardness (simulating substrates of varying stiffness) and dynamic response environments with laser frequencies to evaluate the effects of substrate hardness and dynamic response on the localization of YAP in lung fibroblasts. […]"}
{"smiles": "Cc1ccc(=O)n(-c2ccccc2)c1", "note": "[pirfenidone]", "values": [{"measurement": "expression of the fibrotic marker α-SMA", "setting": "pirfenidone 5.3 mM, two days drug, FIG. 13(a)", "result": "inhibited"}, {"measurement": "inhibiting the mechanical response marker YAP", "setting": "pirfenidone, FIG. 13(b)", "result": "less significant effect"}]}
